Laboratory results published in ChEMBL document CHEMBL3507680, “University of Dundee, Gates Library screen for HepG2 cell viability”.

Test: Human HepG2 cell viability assay in 384 well format
Assay type: toxicity, cell-based
Parameters: dose 125 nL, time 70.5 hour; cytotoxicity at 70.5 h: concentration not given beside the values
Details: HepG2 cells, read-out: Inhibition

Row | Compound | cytotoxicity at 70.5 h [%]
1 | CCc1nc(N)sc1C(=O)N1CCCC(COc2cccc(C)c2)C1 (stereo unspecified) | -0.442
2 | COCC1CC2(CCN(Cc3nc(C)cs3)CC2)CO1 (stereo unspecified) | -8.71
3 | COc1ccc2oc(C(C)NC(=O)NCc3noc(C)n3)c(C)c2c1 (stereo unspecified) | -12
4 | CC(=O)NCCCC(=O)N1CCC(Sc2cccc(C)c2)CC1 | -12.1
5 | Cc1ccc(C(=O)N2CC(C(N)=O)O[C@H](C)C2)c(C)c1 (stereo partly specified) | 1.19
6 | CNC(=O)CN1CCC(NC(=O)Cn2cc(C)c3ccccc32)CC1 | 0.492
7 | COc1ccc(-n2nc(C)c(C(C)=O)c2C)cc1C(N)=O | 2.1
8 | O=C(NCCc1ccccc1F)NCC(O)c1cccc(F)c1 (stereo unspecified) | -7.16
9 | CCN(CCC(=O)OC)C(=O)c1cccc(Cn2nc(C)cc2C)c1 | 4.14
10 | Cc1nc2n(n1)CC(NCc1nc(-c3ccccn3)no1)CC2 (stereo unspecified) | -5.58
11 | Cc1cccc(C(=O)N2C[C@@H](OCc3ccncc3)[C@@H]3OCCC[C@@H]32)n1 | -12.5
12 | CN(C)Cc1ccnc(C2CCCN2Cc2ccc(F)cn2)n1 (stereo unspecified) | 17.2
13 | CC(C)c1nnc(N2C[C@@H]3CC[C@H](C2)N(Cc2ccccc2)C3)s1 | -4.82
14 | Cc1ccc(CCN2C(=O)CC[C@H]3CN(Cc4cnn(C)c4)CC[C@H]32)o1 | -0.704
15 | CN1CCC(c2cccc(-c3ccc(C(=O)O)cc3)n2)CC1 | -2.41
16 | CCN1CC2(CNCCN(C(=O)Nc3ccccc3)C2)CC1=O (stereo unspecified) | 2.39
17 | COCC(=O)N1C[C@H]2CNC[C@@]2(C(=O)NCc2cccc3[nH]ccc23)C1 | -3.16
18 | Cc1cc(C)nc(N2CCC(CNC(=O)c3ccccn3)CC2)n1 | 2.6
19 | COc1ccc(F)cc1CSCC(=O)N(C)C1CC1 | -0.442
20 | CCCNC(=O)NC(=O)CN(CC(C)O)c1ccccc1 (stereo unspecified) | -3.55
21 | CCCN1CCN(C(=O)CCn2nc(C(F)(F)F)c(Br)c2C)CC1 | -10.4

Row | Compound | cytotoxicity at 70.5 h [%]
22 | COc1cc(COCC2CCN(Cc3cccnc3)CC2)cc(OC)c1 | -1.2
23 | CN(C)C(=O)COCC1CN(S(C)(=O)=O)Cc2ncn(C)c21 (stereo unspecified) | -6.55
24 | c1nc(NCc2cc3n(n2)CCN(C2CCCCC2)C3)c2nc[nH]c2n1 | -11.7
25 | CS(=O)(=O)N1CCOCC2(CN(Cc3ccco3)CCO2)C1 (stereo unspecified) | -3.82
26 | c1cncc(CNc2ccccc2-c2nn[nH]n2)c1 | -5.95
27 | c1cnnc(N2CCCC(NCc3cccc4c3OCCO4)C2)c1 (stereo unspecified) | 6.38
28 | COCC1CN(Cc2ccncc2)Cc2nnn(CC3CC3)c21 (stereo unspecified) | -10.7
29 | CNS(=O)(=O)c1cccc(CNC(=O)CCc2ccsc2)c1 | -4.01
30 | CN(C)CC1CSCCCN1C(=O)Nc1ccc(C(C)(C)C)cc1 (stereo unspecified) | 5.94
31 | CS(=O)(=O)N1CCC(CNc2cc(Cl)ccc2C#N)CC1 | -6.86
32 | O=C(C1CCC1)N1CCC2(COCc3cnc(N4CCOCC4)nc32)C1 (stereo unspecified) | 8.28
33 | Cc1cc2c(cc1CN1CCCCC1CCn1ccnc1C)OCO2 (stereo unspecified) | -1.13
34 | CN(CC(O)C1CC1)C(=O)Nc1cc(F)cc(Br)c1 (stereo unspecified) | 26.3
35 | Cc1nn(C)c(C)c1-c1c(-c2ccccc2)ncn1[C@H](CO)C(=O)O | -4.59
36 | CC(C)c1nc2oc(C(=O)N3CCOCC3)c(N)c2c2c1CCCC2 | -16.6
37 | CCNC(=O)c1cnc(Cc2ccc(F)cc2)s1 | -6.25
38 | Cc1nn(C)c(N2CCOCC2)c1CNCc1ccc(CO)c(F)c1 | -0.89
39 | CC(C)c1n[nH]c(C2CN(CCCS(C)(=O)=O)CCO2)n1 (stereo unspecified) | -4.2
40 | Fc1cnc(NCC2Cn3nnc(-c4ccccc4)c3CO2)nc1 (stereo unspecified) | 24.4
41 | CCCN1CCC(c2nc3ccc(-c4ccccc4)cn3n2)CC1 | -10.7
42 | Cc1cc2c(=O)n3c(nc2s1)CCN(Cc1cnn(C)c1C)CC3 | -11.8

Row | Compound | cytotoxicity at 70.5 h [%]
43 | CCn1ncc2c1CCCC2NCc1ccc(C)s1 (stereo unspecified) | -4.74
44 | Cc1ccc(C(=O)NCCNC(=O)N(C)C(C)c2ccccn2)cc1 (stereo unspecified) | -2.96
45 | CS(=O)(=O)N1CCC(c2nnc3ccc(C(=O)NC4CCC4)cn23)C1 (stereo unspecified) | 12.6
46 | CN(C)C(CNC(=O)c1[nH]nc(C2CC2)c1Br)C1CC1 (stereo unspecified) | -5.45
47 | Cc1ccc(NC(=O)CNC(C)CN2CCOCC2)c(F)c1 (stereo unspecified) | -9.12
48 | c1ccc(C[C@H]2CN(C3CCOCC3)CC[C@H]2OCC2CC2)cc1 | -8.83
49 | CN(C)[C@@H]1CO[C@H](CNC(=O)C2CCCC2)[C@H]1O | 6.3
50 | Clc1ccc(CNc2ccc(Cl)cn2)cc1 | -9.29
51 | O=S(=O)(C1CC1)N1CCC2(CCCN(Cc3ccccn3)C2)CC1 | -5.17
52 | Cc1ccc(N2CCCc3sc(C(=O)NCc4cccnc4)nc32)nn1 | -10.4
53 | O=C(CCc1ccsc1)Nc1ccnn1C1CCS(=O)(=O)C1 (stereo unspecified) | 16.5
54 | Cc1ccc([C@H]2CN(C(C)C)C[C@@H]2NS(=O)(=O)N2CCOCC2)o1 | -5.29
55 | O=C(NC1(c2cccc(F)c2)CCOCC1)c1ccccn1 | 12
56 | Cn1cc(CN2CCn3cc(CNC(=O)C4CCC4)nc3C2)cn1 | 2.26
57 | O=C(c1cccnc1)N1CCCC1c1nc(O)cc(-c2ccccn2)n1 (stereo unspecified) | -6.66
58 | O=C(c1cc(-c2cccnc2)[nH]n1)N1CCCC(c2cnccn2)C1 (stereo unspecified) | 12
59 | COc1cc(CNC(C)Cn2ccnc2)cc2c1OCCO2 (stereo unspecified) | 21.5
60 | CN1CCOC2(CCCN(C(=O)C3CCCCC3)C2)C1 (stereo unspecified) | 34.5
61 | Cc1cc2c(=O)n3c(nc2s1)CCN(Cc1cncn1C)CC3 | -7.45
62 | COCC(=O)N1CCc2ncc(Cn3cncn3)n2CC1 | -16.6
63 | CCc1nc2n(n1)CC(NCc1cnc(-c3ccccc3)nc1)CC2 (stereo unspecified) | 29.3

Row | Compound | cytotoxicity at 70.5 h [%]
64 | CN(C)Cc1nnc(C(=O)N(C)Cc2ccc(F)cc2)o1 | -4.17
65 | CCOc1ccccc1C(=O)NC(CC(=O)O)c1cccs1 (stereo unspecified) | -6.28
66 | CC(c1ccco1)N(C)Cc1nc2c(cnn2C)c(=O)[nH]1 (stereo unspecified) | -11.1
67 | Cc1ccc(-n2cc(S(=O)(=O)Nc3cccc(C(=O)O)c3C)cn2)cc1 | -12.2
68 | CN(C)CCNC(=O)c1ccc(OC2CCN(CC3CC3)CC2)c(Cl)c1 | 0.798
69 | Cc1cc(C)n(-c2ccc(C(=O)NCC(CO)Cc3ccco3)cc2)n1 (stereo unspecified) | -7.33
70 | O=c1[nH][nH]cc1-c1ccnc(NCCCN2CCOCC2)n1 | -1.38
71 | CC(=O)N1CCC[C@H]1C(=O)N(C)CCCOc1ccccc1 | -2.16
72 | Cc1nonc1OCCNC(=O)CCCc1ccc(Cl)cc1 | -5.01
73 | CCn1cc(NS(=O)(=O)c2ccc(Br)s2)c(C(N)=O)n1 | 21.8
74 | Cc1ccc(N(C)C2CCCN(C(=O)Nc3ccc(F)cc3F)C2)cc1 (stereo unspecified) | -2.7
75 | Cn1cc(NC(=O)Nc2ccccn2)cc(Cl)c1=O | 9.47
76 | CSCC(C)(O)CNC(=O)c1ccc(F)cc1Br (stereo unspecified) | -4.95
77 | c1cnc(NC2COC3(CCN(Cc4ccoc4)CC3)C2)nc1 (stereo unspecified) | -97.7
78 | CCNC(=O)NC(=O)CN1CCC(c2cccc(F)c2)C1 (stereo unspecified) | -2.05
79 | Cc1nc(-c2ccccc2)n(CC(=O)NCC(C)C)n1 | -3.55
80 | CC(C)(C)C(=O)N1CCN(C(=O)Nc2cnn(CC(F)F)c2)CC1 | -7.22
81 | COc1ccc(Cl)cc1NCCC(=O)NCCNc1cnccn1 | 3.74
